Source: PMC6384738, “Structure-Function Studies of Polymyxin B Lipononapeptides” (Molecules, 2019)
Values after ≈ are worked out from the molar mass of the structure shown. *1 amine or outer side, *2 acyl side, *3 side chain or, on linkers, in order; H or OH if unused. Where a SMILES comes first, the peptide text is derived from it. Bridges are numbered along the chain shown (N, C = ends). [ ]: non-standard residue; d: D form. The star is where a group is joined. Biphenylcarbonyl(4'-Bu) = CCCCc1ccc(-c2ccc(C(=O)*)cc2)cc1; Isonicotinoyl(2-Ph) = O=C(c1ccnc(-c2ccccc2)c1)*; Benzoyl(4-hexyl) = CCCCCCc1ccc(C(=O)*)cc1; Hexanoyl(6-Ph) = O=C(CCCCCc1ccccc1)*; X1 = CCCCCC1CCC(C(=O)*)CC1; NH(2-ClPh) = Clc1ccccc1N*; dDab = NCC[C@@H](N)C(=O)O; Octanoyl = CCCCCCCC(=O)*; Orn = NCCC[C@H](N)C(=O)O; Dab = NCC[C@H](N)C(=O)O; CO = O=C([*:1])[*:2]

Tests used:
in vitro = conditions: human
Method: (§1) All compounds synthesised in this study were assessed for their minimum inhibitory concentrations (MIC, mg/L) by broth microdilution assay against five antibiotic-sensitive and resistant ATCC reference strains covering the Gram-negative ESKAPE pathogens (Escherichia coli, Klebsiella pneumoniae, A. baumannii, and P. aeruginosa) (Table 1, Table 2 and Table 3). Staphylococcus aureus was also included as a representative Gram-positive bacterial strain. […] Polymyxin B 1, colistin 2, vancomycin and gentamicin were used as positive inhibitor comparator compounds. Compounds were counter-screened against human proximal tubular epithelial cells (HK-2), using LDH release as a general indicator of cellular toxicity.
Cytotoxicity to human kidney proximal tubular epithelial cell line, HK-2 (ATCC CRL-2190, sourced from ATCC; Manassas, VA, USA) was determined using the LDH assay as previously described. In brief, HK-2 cells were seeded as 2000 cells/well in black-walled clear bottom 384-well tissue culture treated plates (Corning, catalogue No. 3712) in DMEM/F12 medium (Gibco® 10565-042) containing 10% of Fetal Bovine Serum (FBS, Gibco® 10099-141) and incubated for 24 h at 37 °C, 5% CO2. Compounds were then added into each well with a concentration series from 300 µM to 2.3 µM in 2-fold dilutions. Colistin and polymyxin B were used as controls and tested at a final concentration range of 1 mM to 7.8 µM. The cells were incubated with the compounds for 24 h at 37 °C, 5% CO2. After the incubation, 5 µL of culture medium was added to 45 µL of LDH assay buffer (Biovision, K313-500) and incubated for 30 min at room temperature. The absorbance (ABS) was then read at 450 nm using a Polar Star Omega plate reader. The data was analysed by Prism 6 software (GraphPad Software, La Jolla, CA, USA). Results were calculated using the following equation: cytotoxicity %= (ABSsamples − ABSuntreated/ABS1%Triton X-100 − ABSuntreated) × 100.

E. coli ATCC 25922 = experiment: microbe, parasite or virus in culture; conditions: ATCC 25922, 18 h
Method: as §1

K. pneumoniae BAA 2146 = experiment: microbe, parasite or virus in culture; conditions: BAA 2146, 18 h
Method: as §1

[1] = system: K. pneumoniae ATCC 700603; experiment: microbe, parasite or virus in culture; conditions: ATCC 700603, 18 h
Method: as §1

P. aeruginosa ATTC 27853 = experiment: microbe, parasite or virus in culture; conditions: ATTC 27853, 18 h
Method: as §1

A. baumannii ATCC 19606 = experiment: microbe, parasite or virus in culture; conditions: ATCC 19606, 18 h
Method: as §1

K. pneumoniae ATCC 13833 = experiment: microbe, parasite or virus in culture; conditions: ATCC 13833, 18 h
Method: as §1

S. aureus ATCC 25923 = experiment: microbe, parasite or virus in culture; conditions: ATCC 25923, 18 h
Method: as §1

SMILES	CC50 at 24 h (in vitro)	MIC E. coli ATCC 25922 (E. coli ATCC 25922)	MIC K. pneumoniae BAA 2146 (K. pneumoniae BAA 2146)	MIC K. pneumoniae ATCC 700603 [1]	MIC P. aeruginosa ATTC 27853 (P. aeruginosa ATTC 27853)	MIC A. baumannii ATCC 19606 (A. baumannii ATCC 19606)	MIC K. pneumoniae ATCC 13833 (K. pneumoniae ATCC 13833)	MIC S. aureus ATCC 25923 (S. aureus ATCC 25923)
CCCCCCCC(=O)N[C@H](C(=O)N[C@H](Cc1c[nH]cn1)C(=O)N[C@H]1CCNC(=O)[C@H]([C@@H](C)O)NC(=O)[C@H](CCN)NC(=O)[C@H](CCN)NC(=O)[C@H](CC(C)C)NC(=O)[C@@H](Cc2ccccc2)NC(=O)[C@H](CCN)NC1=O)[C@@H](C)O [Compound 48] (Octanoyl-T[dH][Dab][Dab][dF]L[Dab][Dab]T; lactam 3-C)	> 300 µM	2 µg/mL (≈ 1.78 µM)	4 µg/mL (≈ 3.55 µM)	4 µg/mL (≈ 3.55 µM)	16 µg/mL (≈ 14.2 µM)	4 µg/mL (≈ 3.55 µM)	4 µg/mL (≈ 3.55 µM)	>32 µg/mL
CC(C)C[C@@H]1NC(=O)[C@@H](Cc2ccccc2)NC(=O)[C@H](CCN)NC(=O)[C@@H](NC(=O)[C@H](CCN)NC(=O)[C@@H](NC(=O)c2ccnc(-c3ccccc3)c2)[C@@H](C)O)CCNC(=O)[C@H]([C@@H](C)O)NC(=O)[C@H](CCN)NC(=O)[C@H](CCN)NC1=O [Compound 10] ({Isonicotinoyl(2-Ph)}-T[Dab][Dab][Dab][dF]L[Dab][Dab]T; lactam 3-C)	> 300 µM	4 µg/mL (≈ 3.5 µM)	16 µg/mL (≈ 14 µM)	16 µg/mL (≈ 14 µM)	1 µg/mL (≈ 0.874 µM)	>32 µg/mL	>32 µg/mL	>32 µg/mL
CCCCCCc1ccc(C(=O)N[C@H](C(=O)N[C@@H](CCN)C(=O)N[C@H]2CCNC(=O)[C@H]([C@@H](C)O)NC(=O)[C@H](CCN)NC(=O)[C@H](CCN)NC(=O)[C@H](CC(C)C)NC(=O)[C@@H](Cc3ccccc3)NC(=O)[C@H](CCN)NC2=O)[C@@H](C)O)cc1 [Compound 12] ({Benzoyl(4-hexyl)}-T[Dab][Dab][Dab][dF]L[Dab][Dab]T; lactam 3-C)	46 µM	2 µg/mL (≈ 1.74 µM)	2 µg/mL (≈ 1.74 µM)	4 µg/mL (≈ 3.47 µM)	1 µg/mL (≈ 0.868 µM)	32 µg/mL (≈ 27.8 µM)	16 µg/mL (≈ 13.9 µM)	8 µg/mL (≈ 6.95 µM)
CC(C)C[C@@H]1NC(=O)[C@@H](Cc2ccccc2)NC(=O)[C@H](CCN)NC(=O)[C@@H](NC(=O)[C@H](CCN)NC(=O)[C@@H](NC(=O)CCCCCc2ccccc2)[C@@H](C)O)CCNC(=O)[C@H]([C@@H](C)O)NC(=O)[C@H](CCN)NC(=O)[C@H](CCN)NC1=O [Compound 13] ({Hexanoyl(6-Ph)}-T[Dab][Dab][Dab][dF]L[Dab][Dab]T; lactam 3-C)	189 µM	1 µg/mL (≈ 0.879 µM)	1 µg/mL (≈ 0.879 µM)	2 µg/mL (≈ 1.76 µM)	1 µg/mL (≈ 0.879 µM)	8 µg/mL (≈ 7.03 µM)	8 µg/mL (≈ 7.03 µM)	>32 µg/mL
CCCCCCCC(=O)N[C@H](C(=O)N[C@H](CCCCN)C(=O)N[C@H]1CCNC(=O)[C@H]([C@@H](C)O)NC(=O)[C@H](CCN)NC(=O)[C@H](CCN)NC(=O)[C@H](CC(C)C)NC(=O)[C@@H](Cc2ccccc2)NC(=O)[C@H](CCN)NC1=O)[C@@H](C)O [Compound 43] (Octanoyl-T[dK][Dab][Dab][dF]L[Dab][Dab]T; lactam 3-C)	> 300 µM	1 µg/mL (≈ 0.895 µM)	4 µg/mL (≈ 3.58 µM)	4 µg/mL (≈ 3.58 µM)	4 µg/mL (≈ 3.58 µM)	16 µg/mL (≈ 14.3 µM)	>32 µg/mL	>32 µg/mL
CCCCCCCC(=O)N[C@H](C(=O)N[C@@H](CCCN)C(=O)N[C@H]1CCNC(=O)[C@H]([C@@H](C)O)NC(=O)[C@H](CCN)NC(=O)[C@H](CCN)NC(=O)[C@H](CC(C)C)NC(=O)[C@@H](Cc2ccccc2)NC(=O)[C@H](CCN)NC1=O)[C@@H](C)O [Compound 40] (Octanoyl-T[Orn][Dab][Dab][dF]L[Dab][Dab]T; lactam 3-C)	> 300 µM	2 µg/mL (≈ 1.81 µM)	4 µg/mL (≈ 3.63 µM)	4 µg/mL (≈ 3.63 µM)	2 µg/mL (≈ 1.81 µM)	16 µg/mL (≈ 14.5 µM)	8 µg/mL (≈ 7.25 µM)	>32 µg/mL
CCCCCC1CCC(C(=O)N[C@H](C(=O)N[C@H](CCN)C(=O)N[C@H]2CCNC(=O)[C@H]([C@@H](C)O)NC(=O)[C@H](CCN)NC(=O)[C@H](CCN)NC(=O)[C@H](CC(C)C)NC(=O)[C@@H](Cc3ccccc3)NC(=O)[C@H](CCN)NC2=O)[C@@H](C)O)CC1 (some centres unmarked) [Compound 24] (X1-T[dDab][Dab][Dab][dF]L[Dab][Dab]T; lactam 3-C)	60 µM	4 µg/mL (≈ 3.5 µM)	4 µg/mL (≈ 3.5 µM)	8 µg/mL (≈ 7 µM)	4 µg/mL (≈ 3.5 µM)	32 µg/mL (≈ 28 µM)	>32 µg/mL	–
CC(C)C[C@@H]1NC(=O)[C@@H](Cc2ccccc2)NC(=O)[C@H](CCN)NC(=O)[C@@H](NC(=O)[C@H](CCN)NC(=O)[C@@H](NC(=O)[C@H](CCN)NC(=O)Nc2ccccc2Cl)[C@@H](C)O)CCNC(=O)[C@H]([C@@H](C)O)NC(=O)[C@H](CCN)NC(=O)[C@H](CCN)NC1=O [Compound 16] ({NH(2-ClPh)-CO}-[Dab]T[Dab][Dab][Dab][dF]L[Dab][Dab]T; lactam 4-C)	> 300 µM	–	–	–	–	–	–	–
CCCCCCCC(=O)N[C@@H](CCN)C(=O)N[C@H](C(=O)N[C@H](CO)C(=O)N[C@H]1CCNC(=O)[C@H]([C@@H](C)O)NC(=O)[C@H](CCN)NC(=O)[C@H](CCN)NC(=O)[C@H](CC(C)C)NC(=O)[C@@H](Cc2ccccc2)NC(=O)[C@H](CCN)NC1=O)[C@@H](C)O [Compound 34] (Octanoyl-[Dab]T[dS][Dab][Dab][dF]L[Dab][Dab]T; lactam 4-C)	139 µM	–	16 µg/mL (≈ 13.6 µM)	2 µg/mL (≈ 1.7 µM)	–	–	0.5 µg/mL (≈ 0.425 µM)	>32 µg/mL
CCCCc1ccc(-c2ccc(C(=O)N[C@H](C(=O)N[C@H](CCN)C(=O)N[C@H]3CCNC(=O)[C@H]([C@@H](C)O)NC(=O)[C@H](CCN)NC(=O)[C@H](CCN)NC(=O)[C@H](CC(C)C)NC(=O)[C@@H](Cc4ccccc4)NC(=O)[C@H](CCN)NC3=O)[C@@H](C)O)cc2)cc1 [Compound 23] ({Biphenylcarbonyl(4'-Bu)}-T[dDab][Dab][Dab][dF]L[Dab][Dab]T; lactam 3-C)	29 µM	–	–	–	–	–	–	–
CCCCCCCC(=O)N[C@@H](CCN)C(=O)N[C@H](C(=O)NCC(=O)N[C@H]1CCNC(=O)[C@H]([C@@H](C)O)NC(=O)[C@H](CCN)NC(=O)[C@H](CCN)NC(=O)[C@H](CC(C)C)NC(=O)[C@@H](Cc2ccccc2)NC(=O)[C@H](CCN)NC1=O)[C@@H](C)O [Compound 50] (Octanoyl-[Dab]TG[Dab][Dab][dF]L[Dab][Dab]T; lactam 4-C)	> 300 µM	–	–	–	–	–	0.5 µg/mL (≈ 0.436 µM)	>32 µg/mL
